Where no end group is shown, it is not given here.
Experiments:
[1] = tested on: E. coli BW25113; assay type: cell-based; conditions: E. coli BW25113 parental strain; MHB II; 18 h, 37°C; averaged (n>3)
Method: Bacterial cells were grown in cation-adjusted Mueller Hinton Broth (MHB II) overnight to stationary phase. The cultures were then supplemented with 200 g l^−1 glycerol, aliquoted, and frozen at −80°C. […] The purified peptides were thawed and the concentration was determined by RP-HPLC as described before. The peptides were diluted with sterile water to 4-fold the desired assays starting concentration and to a final volume of 50 μl. […] The first well of each MIC dilution series was filled with 20 μl of 2-fold concentrated MHB II, wells 2–11 with 20 μl of MHB II, and well 12 with 40 μl MHB II (sterility control). Next, 20 μl of the peptide dilution was added to the first well, mixed, and a log2-serial dilution was performed from wells 1 to 10 (20 μl transfer volume). Well 11 served as growth control (i.e., no peptide added). In the last step, 20 μl of the bacterial cell suspension was added to wells 1–11 either using the pipetting robot (E. coli TOP10, BW25113, BW25113 ΔsbmA, and ATCC 25922) or by manual pipetting (E. coli clinical isolates). The plates were sealed airtight and incubated for 18 h without shaking at 37°C before reading the OD using an Infinite 200 PRO plate reader (Tecan, Männedorf, CH). The MIC value corresponded to the concentration at which no growth of the bacterial strain was observed (< 5% of the OD value of the growth control) and was evaluated using a custom-written script in the programming language R. MIC values of E. coli TOP10, BW25113, BW25113 ΔsbmA, and ATCC 25922 were determined at least in biological triplicates. All MIC experiments were determined in technical replicate.

[2] = tested on: E. coli ribosomes; conditions: S30 extract E. coli ATCC 25922; firefly luciferase mRNA; 800 to 0.08 μM; 1 h, 37°C; n = 9; p = 0.15, Wilcoxon, not significant
Method: To measure inhibition of the E. coli ATCC 29522 ribosome, an S30 extract from E. coli cells was purified. E. coli ATCC 25922 was grown in 2 l of liquid LB medium at 37°C and 160 rpm. Cells were harvested in the logarithmic phase by centrifugation for 30 min at 3500 × g at 4°C. The cell pellet was washed with ice-cold S30 buffer (20 mM Tris-acetate pH 8.2, 60 mM potassium acetate, 14 mM magnesium acetate, and 3 mM β-mercaptoethanol) and pelleted again for 30 min at 3500 × g at 4°C. The resulting cell pellet was shock-frozen in liquid nitrogen and stored at −80°C until further processing. Frozen E. coli cells were thawed on ice and resuspended in four times their volume ice-cold S30 buffer. The resulting cell suspension was lysed by passing it twice through a microfluidizer processor (Microfluidics, Westwood, MA, USA) at 25,000 lb/in^2 and the cell lysate was immediately amended with DTT to a final concentration of 1 mM. The lysate was then centrifuged twice for 30 min at 30,000 × g at 4°C. After each centrifugation cycle, the clear supernatant was carefully decanted and the pellet discarded. Aliquots of S30 extract were shock-frozen in liquid nitrogen and stored at −80°C.
Sealed plates were incubated for 1 h at 37°C and stopped on ice before adding 75 μl of luciferase assay reagent (Promega) to each reaction. […]

[3] = tested on: HeLa cells; assay: In vitro toxicity assay (MTT), HeLa; assay type: cell-based, human
Method: HeLa epithelioid cervix carcinoma cells (originally purchased: 93021013, Sigma Aldrich) and HEK 293 human embryonic kidney (originally purchased: 85120602, Sigma Aldrich) were routinely cultivated in Dulbecco’s MEM high glucose (DMEM, with L-glutamine, without phenol red, 1-26P32, Bioconcept, Allschwil, CH), supplemented with 10% fetal bovine serum (heat inactivated, sterile filtered, F9665, Sigma Aldrich) and 100 IU ml^−1/100 μg ml^−1 Penicillin/streptomycin (4-01F00, Bioconcept) at 37°C with 5% CO2. Cells were split at a confluency of ≤ 90% (every 3 to 4 days) and maintained for max. 10 passages before a fresh aliquot of cells were seeded. […] The cell concentration was determined using a Countess 2 device (Thermo Fisher Scientific) and approx. 5000 (HeLa) or 25,000 (HEK 293) cells were seeded into wells of a 96-well plate (F-bottom, PS, 655180, Greiner) together with 100 μl DMEM. […] For each dilution series, the IC50 value was determined by computing a weighted n-parameters logistic regression using the “nplr” package in R (https://CRAN.R-project.org/package=nplr). […]

[4] = tested on: HEK 293 ribosomes; assay: In vitro translation inhibition assay, HEK 293 S30 extract; assay type: biochemical, human; conditions: firefly luciferase mRNA, 800 to 0.08 μM, 1 h, 37°C, n = 9, p<10^−5, Wilcoxon
Method: To measure inhibition of the HEK 293 ribosome, an S30 extract was prepared from HEK 293-F cells. Suspension cultures of HEK 293-F cells (Gibco, Thermo Fisher) were maintained in 293 SFM II medium (Thermo Fisher) supplemented with 4 mM of L-glutamine according to the manufacturer’s instructions. Cells in the logarithmic phase were harvested by centrifugation for 18 min at 200 × g at 4°C. The cell pellet was washed twice with ice-cold PBS and pelleted again for 5 min at 200 × g at 4°C. Subsequently, cells were washed twice with ice-cold washing buffer (35 mM HEPES-KOH buffer pH 7.4, 146 mM NaCl, 11 mM D-(+)-glucose) and centrifuged for 5 min at 200 × g and 4°C. Cells were then resuspended in twice the volume of hypotonic buffer (20 mM HEPES-KOH buffer pH7.4, 10 mM KCl, 1.5 mM magnesium acetate, 1 mM DTT) and incubated for 10 min on ice. Cells were disrupted using a glass Dounce tissue homogenizer (Kimble, DWK Life Sciences, Mainz, Germany). After disruption, 0.1 volume of 10fold buffer (200 mM HEPES-KOH buffer pH 7.4, 1.2 M potassium acetate, 40 mM magnesium acetate, 50 mM DTT) of the total amount of hypotonic buffer was added. Cell debris was pelleted by centrifuging the lysate for 10 min at 700 × g at 4°C. The supernatant was then centrifuged for 15 min at 30,000 × g at 4°C.
(BIO-TEK FLx80, Witec AG, Littau, CH). […] Y=Bottom + (Top-Bottom)/(1+10^((X-LogIC50)))”.

Sequence: RRIRIRPPRLPRPRPRPYFMPRP [Bac7PS]
- MIC [1]: 3.6 µM
- mean increase of activity on E. coli ribosomes (translation inhibition IC50) compared to Bac7_1-23 [2]: 10%
- IC50 ([3]; HeLa, MTT, 24 h, 37°C, triplicates): 521 µM
- therapeutic index (TI), Toxicity/MIC ([3]; IC50 HeLa divided by MIC50 from clinical isolates): 180
- mean increase in ribosomal binding (translation inhibition IC50), HEK 293 ribosomes, compared to Bac7_1-23 [4]: 38%

From PMC9112550, “Optimization of the antimicrobial peptide Bac7 by deep mutational scanning” (BMC Biology, 2022)
